Among the data in BindingDB's records for doi:10.3109/14756360903179401 (Universidad Nacional Autonoma De Mexico, 2010) are IC50 values, retold here.

The assay concerns the target T1, cDNA, FLJ78895, highly similar to 3-oxo-5-alpha-steroid 4-dehydrogenase 1 (Homo sapiens, UniProt B7Z4L2).
T1 sequence (B7Z4L2 whole entry): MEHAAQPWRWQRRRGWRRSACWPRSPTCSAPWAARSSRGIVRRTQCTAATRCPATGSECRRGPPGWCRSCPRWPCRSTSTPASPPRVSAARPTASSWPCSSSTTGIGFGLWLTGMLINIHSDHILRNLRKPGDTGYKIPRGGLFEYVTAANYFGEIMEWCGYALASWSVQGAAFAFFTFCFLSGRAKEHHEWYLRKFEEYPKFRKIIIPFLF
The experiment in a line: 5α-Reductase Activity Assay. As to conditions: pH 6.5; 37 °C. The procedure: The reaction mixture contained a final volume of 1 mL: 1 mM dithiothreitol, sodium phosphate buffer 40 mM, at pH 6.5 for human prostate, 2 mM NADPH, 2 nM [1,2,6,7-3H]T [Cabeza et al., Steroids 60:630-5]. The reaction in duplicate was started when it was added to the enzymatic fraction (500 μg protein in a volume of 80 μL) incubated at 37°C for 60 min [Hirosumi et al., J. Steroid Biochem. Mol. Biol., 52:357-63] and stopped by mixing with 1 mL of dichloromethane; this was considered as the end point. Incubation without tissue was used as a control. The mixture (incubation medium/dichloromethane) was agitated on a vortex for 1 min and the dichloromethane phase was separated and placed in another tube. This procedure was repeated four more times. The dichloromethane extract was evaporated to dryness under a nitrogen stream and suspended in […] that was spotted on high-performance thin layer chromatography (HPTLC) Keiselgel 60 F254 plates. T and DHT were used as carriers, and were applied in different lanes on both lateral sides of the plates (T, T + DHT, and DHT). The plates were developed in chloroform-acetone, 9:1, and were air-dried; the chromatography was repeated twice more. The steroid carriers were detected using phosphomolybdic acid reagent (DHT) and with an ultraviolet (UV) lamp (254 nm) (T). After the plates were segmented into pieces of 1 cm each, these were cut off and the strips soaked in 5 mL of Ultima Gold (Packard). The radioactivity was determined in a scintillation counter (Packard Tri-Carb 2100 TR). The radioactivity content in the segment corresponding to T and DHT carriers was identified. Radioactivity with identical chromatographic behavior to the DHT standard was considered as the DHT transformation.
As for `CC(=O)O[C@]1(C(C)=O)CCC2C3C(CC[C@@]21C)[C@@]1(C)CCC(=O)C=C1[C@H]1O[C@@H]31` (stereo partly drawn) [3,20-Dioxo-6,7-epoxypregn-4-ene-7α-yl acetate (8)], the half-maximal inhibitory concentration (IC50) – broadly, the concentration that gives 50% inhibition – was determined as 22 nM.

As to `CC(C)(C)NC(=O)C1CCC2C3CCC4NC(=O)C=C[C@]4(C)C3CC[C@]12C` (stereo not given in full) [Finasteride (3)], the concentration for half-maximal inhibition (IC50) was 8.5 nM. `CC(=O)O[C@]1(C(C)=O)CCC2C3CCC4=CC(=O)CC[C@]4(C)C3CC[C@@]21C` (stereo partly drawn) [17α-Acetoxyprogesterone (6)] yielded an IC50 of 10 nM. As for `CC(=O)O[C@]1(C(C)=O)CCC2C3C=CC4=CC(=O)CC[C@]4(C)C3CC[C@@]21C` (stereo partly drawn) [3,20-Dioxopregna-4,6-dien-17α-yl acetate (7)], the IC50 came out at 70 nM.

Consider `CC(=O)O[C@]1(C(C)=O)CCC2C3C=C(Cl)C4=CC(=O)CC[C@]4(C)C3CC[C@@]21C` (stereo partly drawn) [6-Chloro-3,20-dioxopregna-4,6-diene-17α-yl acetate (9)], for which 19 nM corresponded to half-maximal inhibition (IC50).
